Data as given in US20240374739A1, “BILE ACID CONJUGATE” (Curtin University, priority 2021, published 2024).

Columns and labels:
[1] = biological target: T1, Acetylcholinesterase (AChE) (Homo sapiens, UniProt P22303); assay: Acetylcholinesterase (AChE) activity, Amplex Red reagent-based assay, Alzheimer's disease model; assay type: cell-based; conditions: probucol 20 μM, SPQ 10 μM, HA-1 10 μM, rivastigmine 2 μM, 24 hours
T1 construct: We assayed for AChE activity and ACh release in control, neurodegenerated AD and drug treated AD cells; endogenous in cells; host or cells: neurodegenerated cells of a human stem cell AD model derived from perinatal tissue (amniotic membrane mesenchymal stem cells are named for the MTT assay)
Procedure: (§1) Perinatal tissue derived human stem cell model for Alzheimer's disease (AD) was prepared using proprietary protocols to test the effect of new drug entities. Drug treatment was for 24 h in all the assays.
(§2) Acetylcholinesterase (AChE) that regulates hydrolysis of acetylcholine (ACh) in the brain, is an important target for treatment of Alzheimer's disease (AD), a feature of which is ACh deficiency. We assayed for AChE activity and ACh release in control, neurodegenerated AD and drug treated AD cells.

[2] = system: Neurodegenerated cells (Alzheimer's disease model); assay: Acetylcholine (ACh) release, Amplex Red reagent-based assay, Alzheimer's disease model; assay type: cell-based, human; conditions: probucol 20 μM, SPQ 10 μM, HA-1 10 μM, rivastigmine 2 μM, 24 hours
Procedure: as §1, §2

[3] = system: Neurodegenerated cells (Alzheimer's disease model); assay: Mitochondrial membrane potential by TMRE assay, Alzheimer's disease model; assay type: cell-based, human; conditions: AD model; probucol 20 μM, SPQ 10 μM, HA-1 10 μM, rivastigmine 2 μM, 24 hours
Procedure: as §1
Aβ plaques are sources of toxicity that lead to severe structural and functional abnormalities in mitochondria in Alzheimer's disease. For assessing the changes in the electrophysiology and functional changes in the mitochondrial membrane potential, we used TMRE (tetramethylrhodamine ethyl ester) for quantifying changes in mitochondrial membrane potential in live cells by fluorimetry.

[4] = system: Neurodegenerated cells (Alzheimer's disease model); assay: Gene expression analysis by qRT-PCR for neuronal, cholinergic and AD associated markers; assay type: cell-based, human; conditions: 24 h drug treatment
Procedure: as §1
For determining the expression of genes involved in AD specific neurodegeneration and neuronal markers, we analysed BACE and chAT (AD and cholinergic markers) and synapsin 1 and neuropilin (neuronal markers).

[5] = system: Neurodegenerated cells (Alzheimer's disease model); assay: Immunocytochemical localization of AD specific and neuronal markers; assay type: cell-based, human; conditions: fluorescence micrographs
Procedure: as §1
For further confirmation and protein localization of the AD specific neurodegenerative markers and neuronal markers, we performed immunolocalization for BACE1 and synapsin respectively.
Fluorescence micrographs of BACE1 positive neuronal cells were obtained and the effects of probucol, SPQ and HA-1 on neurodegeneration model were compared. […] In the AD model, as expected BACE1 accumulation is clearly pronounced.
In the case of synapsin 1, a disruption in expression of synapsin protein in ND cells was observed.

[6] = system: Neurodegenerated cells (Alzheimer's disease model); assay: Greiss (nitric oxide) assay, Alzheimer's disease model; assay type: cell-based, human; conditions: AD model
Procedure: as §1
Increase in oxidative stress is associated with accumulation of amyloid beta seen in the AD model. Increased oxidative stress and nitric oxide levels lead to apoptosis and evoke cytotoxic effects on neurons.

[7] = system: Neurodegenerated cells (Alzheimer's disease model); assay: Glutathione peroxidase / GSH activity, Alzheimer's disease model; assay type: cell-based, human; conditions: AD model; vs neurodegeneration
Procedure: as §1
Alzheimer's disease-related increase in oxidative stress is associated with decrease in the levels of brain antioxidant glutathione (GSH).
(Statistical analysis: results are expressed in mean±SD. One-way ANOVA followed by Dunnett's post hoc test was performed to compare all columns vs neurodegeneration (p<0.05; *p<0.05, **p<0.001, ***p<0.0001, ns=non-significant, n=3).)

[8] = system: Neurodegenerated cells (perinatal tissue derived human stem cell model for Parkinson's disease); assay: Mitochondrial membrane potential by TMRE assay, Parkinson's disease model; assay type: cell-based; conditions: PD model; probucol 20 μM, SPQ 10 μM, HA-1 10 μM, L-Dopa 50 μM, 24 hours
Procedure: (§3) Perinatal tissue derived human stem cell model for Parkinson's disease (PD) was prepared using proprietary protocols to test the effect of new drug entities. Drug treatment was for 24 hours in all the assays.
Dysfunctional mitochondria and alterations in the mitochondrial membrane potential promote neurodegeneration seen in Parkinson's disease. For assessing the changes in mitochondrial membrane potential, we used TMRE (tetramethylrhodamine ethyl ester) to quantify the changes in live cells by fluorimetry.
Neurodegenerated cells were incubated with probucol (20 μM), SPQ (10 μM), HA-1 (10 μM) and L-Dopa (50 μM) for 24 hours (p<0.05; *p<0.05, **p<0.001, ***p<0.0001, ns=non-significant, n=3).

[9] = system: Neurodegenerated cells (Parkinson's disease model); assay: Gene expression analysis by qRT-PCR for neuronal, dopaminergic and PD associated markers; assay type: cell-based, human; conditions: 24 hours drug treatment
Procedure: as §3
Gene expression levels of mature neuronal marker (Synapsin I), dopaminergic markers (Nuclear receptor related 1 (Nurr1), Dopamine transporter (DAT) and Tyrosine hydroxylase (TH)), and PD associated marker (α-synuclein) were analysed to determine the effect of probucol, SPQ, HA-1 and L-Dopa.
(A) Synapsin I, (B) Nurr1, (C) DAT, (D) TH and (E) α-synuclein. (p<0.05; *p<0.05, **p<0.001, ***p<0.0001, n=3).

[10] = system: Neurodegenerated cells (Parkinson's disease model); assay: ROS assay, Parkinson's disease model; assay type: cell-based, human; conditions: PD model
Procedure: as §3
(§4) Increase in oxidative stress associated with accumulation of α-synuclein plays a central role in disease progression. Nitric oxide enhances the aggregation of α-synuclein and accelerates disease progression. Increased oxidative stress and nitric oxide levels lead to apoptosis and evoke cytotoxic effects on neurons.

[11] = system: Neurodegenerated cells (Parkinson's disease model); assay: Greiss (nitric oxide) assay, Parkinson's disease model; assay type: cell-based, human; conditions: PD model
Procedure: as §3, §4

[12] = system: Neurodegenerated cells (Parkinson's disease model); assay: Glutathione peroxidase / GSH activity, Parkinson's disease model; assay type: cell-based, human; conditions: PD model; vs neurodegeneration
Procedure: as §3
Parkinson's disease-related increase in oxidative stress is associated with mitochondrial dysfunction and subsequent decrease in the levels of brain antioxidant glutathione (GSH).
(Statistical analysis: Results are expressed in mean±SD. One-way ANOVA followed by Dunnett's post hoc test was performed to compare all columns vs neurodegeneration (p<0.05; *p<0.05, **p<0.001, ***p<0.0001, ns=non-significant, n=3).)

T1 sequence (P22303 32-614): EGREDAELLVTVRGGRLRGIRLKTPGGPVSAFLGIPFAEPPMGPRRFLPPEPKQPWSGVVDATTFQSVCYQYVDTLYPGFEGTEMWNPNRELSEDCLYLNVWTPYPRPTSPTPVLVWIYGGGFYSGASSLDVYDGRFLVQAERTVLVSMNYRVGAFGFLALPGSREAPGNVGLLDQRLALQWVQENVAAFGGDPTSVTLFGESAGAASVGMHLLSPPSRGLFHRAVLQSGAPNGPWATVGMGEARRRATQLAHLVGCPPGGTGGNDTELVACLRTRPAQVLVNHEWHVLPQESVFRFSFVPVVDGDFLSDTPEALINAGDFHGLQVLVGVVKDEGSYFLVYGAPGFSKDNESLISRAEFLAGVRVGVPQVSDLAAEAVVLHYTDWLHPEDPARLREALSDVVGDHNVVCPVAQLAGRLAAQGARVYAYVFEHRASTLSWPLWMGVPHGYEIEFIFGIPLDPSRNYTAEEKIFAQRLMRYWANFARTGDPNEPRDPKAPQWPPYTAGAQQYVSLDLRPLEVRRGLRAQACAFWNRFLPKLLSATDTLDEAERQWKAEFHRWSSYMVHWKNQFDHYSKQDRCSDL

Structure (SMILES) | Acetylcholinesterase (AChE) activity [1] | Acetylcholine (ACh) release / level [2] | mitochondrial membrane potential (TMRE) [3] | BACE1 gene expression (qRT-PCR) [4] | ChAT gene expression (qRT-PCR) [4] | neuropilin gene expression (qRT-PCR) [4] | synapsin 1 (Syn) gene expression (qRT-PCR) [4] | synapsin 1 protein expression (immunolocalization) [5] | nitric oxide level [6] | glutathione (GSH) activity [7] | mitochondrial membrane potential (TMRE) [8] | TH gene expression (qRT-PCR) [9] | α-synuclein gene expression (qRT-PCR) [9] | intracellular reactive oxidative stress (ROS) [10] | nitric oxide level [11] | glutathione (GSH) activity [12] | accumulation of BACE1 protein (immunolocalization) [5] | DAT gene expression (qRT-PCR) [9] | Nurr1 gene expression (qRT-PCR) [9] | Synapsin I gene expression (qRT-PCR) [9]
CC(C)(Sc1cc(C(C)(C)C)c(O)c(C(C)(C)C)c1)Sc1cc(C(C)(C)C)c(O)c(C(C)(C)C)c1 [probucol, 2,6-ditert-butyl-4-[2-(3,5-ditert-butyl-4-hydroxyphenyl)sulfanylpropan-2-ylsulfanyl]phenol] | inhibition of acetylcholinesterase (AChE) similar to rivastigmine | increase/maintain the level of acetylcholine (ACh) | maintain the mitochondrial membrane potential | decrease the level of beta secretase 1 (BACE1) | increase the level of choline acetyltransferase (ChAT) | increased | increased | clear reversal of degeneration | prevent the reduction of endogenous nitric oxide level | increase in the anti-oxidant GSH activity | maintain the mitochondrial membrane potential | clearly upregulated | decreased expression of α-synuclein | decrease the level of ROS | prevent the reduction of endogenous nitric oxide levels | increase in the GSH activity | – | – | – | –
CC(=O)O[C@@H]1CC[C@@]2(C)[C@H](CC[C@@H]3[C@@H]2CC[C@]2(C)[C@@H]([C@H](C)CCC(=O)Oc4c(C(C)(C)C)cc(SC(C)(C)Sc5cc(C(C)(C)C)c(O)c(C(C)(C)C)c5)cc4C(C)(C)C)CC[C@@H]32)C1 [HA-1, 2,6-di-tert-butyl-4-((2-((3,5-di-tert-butyl-4-hydroxyphenyl)thio)propan-2-yl)thio)phenyl (4R)-4-[(3R,5R,8R,9S,10S,13R,14S,17R)-3-acetoxy-10,13-dimethyl-2,3,4,5,6,7,8,9,11,12,14,15,16,17-tetradecahydro-1H-cyclopenta[a]phenanthren-17-yl]pentanoate] | inhibition of acetylcholinesterase (AChE) similar to rivastigmine | increase/maintain the level of acetylcholine (ACh) | maintain the mitochondrial membrane potential | decrease the level of beta secretase 1 (BACE1) | increase the level of choline acetyltransferase (ChAT) | increased | increased | clear reversal of degeneration | prevent the reduction of endogenous nitric oxide level | increase in the anti-oxidant GSH activity | maintain the mitochondrial membrane potential | increase the expression of all the dopaminergic markers tested | decreased expression of α-synuclein | decrease the level of ROS | prevent the reduction of endogenous nitric oxide levels | increase in the GSH activity | least expression | increase the expression of all the dopaminergic markers tested | increase the expression of all the dopaminergic markers tested | –
CC1(C)SC2(C=C(C(C)(C)C)C(=O)C(C(C)(C)C)=C2)C2(C=C(C(C)(C)C)C(=O)C(C(C)(C)C)=C2)S1 [SPQ, 2,4,9,11-tetrakis(1,1-dimethylethyl)-14,14-dimethyl-13,15-dithiadispiro[5.0.5.3]pentadeca-1,4,8,11-tetraene-3,10-dione] | inhibition of acetylcholinesterase (AChE) similar to rivastigmine | increase/maintain the level of acetylcholine (ACh) | maintain the mitochondrial membrane potential | decrease the level of beta secretase 1 (BACE1) | increase the level of choline acetyltransferase (ChAT) | increased | increased | clear reversal of degeneration | prevent the reduction of endogenous nitric oxide level | increase in the anti-oxidant GSH activity | enhanced restoration of the mitochondrial membrane potential | significantly increased | decreased expression of α-synuclein | decrease the level of ROS | prevent the reduction of endogenous nitric oxide levels | increase in the GSH activity | – | significantly increased | – | significantly increased
